According to PubChem BioAssay AID1259407 (Chemical Carcinogenesis Research Information System (CCRIS), 2018):
Active and inactive are the calls of the source. No rule for the calls is given here.

Test system: CCRIS mutagenicity, Ames/micronucleus/aberration tests
Assay: CCRIS mutagenicity studies
[1] = Test System: AMES SALMONELLA TYPHIMURIUM, Strain/Indicator: TA1535, Metabolic Activation: NONE, Method: PREINCUBATION
[2] = Test System: AMES SALMONELLA TYPHIMURIUM, Strain/Indicator: TA98, Metabolic Activation: NONE, Method: STANDARD PLATE
[3] = Test System: AMES SALMONELLA TYPHIMURIUM, Strain/Indicator: TA100, Metabolic Activation: NONE, Method: STANDARD PLATE
[4] = Test System: AMES SALMONELLA TYPHIMURIUM, Strain/Indicator: TA98, Metabolic Activation: NONE, Method: PREINCUBATION
[5] = Test System: AMES SALMONELLA TYPHIMURIUM, Strain/Indicator: TA100, Metabolic Activation: NONE, Method: PREINCUBATION
[6] = Test System: AMES SALMONELLA TYPHIMURIUM, Strain/Indicator: TA100, Metabolic Activation: RAT, LIVER, S-9, AROCLOR 1254, Method: STANDARD PLATE

Measured: mutagenic call

NCCCNCCCCN(CCCN)/[N+]([O-])=N/O
active: [1] active; positive | Test System: AMES SALMONELLA TYPHIMURIUM, Strain/Indicator: TA1535, Metabolic Activation: NONE, Method: STANDARD PLATE active; positive | Test System: CHINESE HAMSTER OVARY, Strain/Indicator: CHO-K1-BH4 (HGPRT)/6-THIOGUANINE, Metabolic Activation: NONE active; positive | Test System: E. COLI, Strain/Indicator: WP2 UVRA (PKM101), Metabolic Activation: NONE, Method: STANDARD PLATE active; positive | Test System: E. COLI, Strain/Indicator: WP2 UVRA/OXYR (PKM101), Metabolic Activation: NONE, Method: STANDARD PLATE active; positive | Test System: E. COLI, Strain/Indicator: WP2 UVRA/UMUDC, Metabolic Activation: NONE, Method: STANDARD PLATE active; positive | Test System: E. COLI, Strain/Indicator: WP2 UVRA, Metabolic Activation: NONE, Method: STANDARD PLATE active; positive | Test System: MOUSE LYMPHOMA, Strain/Indicator: L5178Y (TK+/TK-), Metabolic Activation: NONE, Method: SUSPENSION/PLATE active; positive

CC(=O)OC1Cc2c(C)ccc3cc4c(ccc5ccccc54)c1c23 (stereo not given)
active: [2] active; positive | [3] active; positive

N[C@@H](CSCc1ccccc1)C(=O)O
inactive: [4] inactive; negative | Test System: AMES SALMONELLA TYPHIMURIUM, Strain/Indicator: TA98, Metabolic Activation: RAT, LIVER OR KIDNEY, MICROSOMES, Method: PREINCUBATION inactive; negative | [5] inactive; negative | Test System: AMES SALMONELLA TYPHIMURIUM, Strain/Indicator: TA100, Metabolic Activation: RAT, LIVER OR KIDNEY, MICROSOMES, Method: PREINCUBATION inactive; negative | Test System: AMES SALMONELLA TYPHIMURIUM, Strain/Indicator: TA102, Metabolic Activation: NONE, Method: PREINCUBATION inactive; negative | Test System: AMES SALMONELLA TYPHIMURIUM, Strain/Indicator: TA102, Metabolic Activation: RAT, LIVER OR KIDNEY, MICROSOMES, Method: PREINCUBATION inactive; negative | Test System: AMES SALMONELLA TYPHIMURIUM, Strain/Indicator: TA2638, Metabolic Activation: NONE, Method: PREINCUBATION inactive; negative | Test System: AMES SALMONELLA TYPHIMURIUM, Strain/Indicator: TA2638, Metabolic Activation: RAT, LIVER OR KIDNEY, MICROSOMES, Method: PREINCUBATION inactive; negative

O[C@@H]1C=Cc2c(ccc3c2ccc2ccccc23)[C@H]1O
active: Test System: AMES SALMONELLA TYPHIMURIUM, Strain/Indicator: TA100, Metabolic Activation: EPITHELIAL CELL-MEDIATED, AROCLOR 1254, Method: PREINCUBATION active; positive | Test System: AMES SALMONELLA TYPHIMURIUM, Strain/Indicator: TA100, Metabolic Activation: KUPFFER CELL-MEDIATED, AROCLOR 1254, Method: PREINCUBATION active; positive | Test System: AMES SALMONELLA TYPHIMURIUM, Strain/Indicator: TA100, Metabolic Activation: PARENCHYMAL CELL-MEDIATED, AROCLOR 1254, Method: PREINCUBATION active; positive | Test System: AMES SALMONELLA TYPHIMURIUM, Strain/Indicator: TA100, Metabolic Activation: PARENCHYMAL CELL-MEDIATED, NADPH, Method: PREINCUBATION active; positive | [6] active; positive
inactive: [2] inactive; negative | Test System: AMES SALMONELLA TYPHIMURIUM, Strain/Indicator: TA100, Metabolic Activation: EPITHELIAL CELL-MEDIATED, Method: PREINCUBATION inactive; negative | Test System: AMES SALMONELLA TYPHIMURIUM, Strain/Indicator: TA100, Metabolic Activation: KUPFFER CELL-MEDIATED, Method: PREINCUBATION inactive; negative | [3] inactive; negative | Test System: AMES SALMONELLA TYPHIMURIUM, Strain/Indicator: TA100, Metabolic Activation: PARENCHYMAL CELL-MEDIATED, Method: PREINCUBATION inactive; negative

O=C/C=C/c1ccccc1[N+](=O)[O-]
active: [5] active; positive | Test System: AMES SALMONELLA TYPHIMURIUM, Strain/Indicator: TA100, Metabolic Activation: RAT, LIVER, S-9, AROCLOR 1254, Method: PREINCUBATION active; positive

BrCc1ccc2c3c(cccc13)-c1ccccc1-2
active: [2] active; positive | [3] active; positive

CC1CS(=O)(=O)CCN1/N=C/c1ccc([N+](=O)[O-])o1 (stereo not given)
inactive: [2] inactive; negative
active: Test System: AMES SALMONELLA TYPHIMURIUM, Strain/Indicator: TA97, Metabolic Activation: NONE, Method: STANDARD PLATE active; positive | [3] active; positive | [6] active; positive | Test System: AMES SALMONELLA TYPHIMURIUM, Strain/Indicator: TA102, Metabolic Activation: NONE, Method: STANDARD PLATE active; positive

c1cc2ccc3cc4occc4c4ccc(c1)c2c34
active: Test System: AMES SALMONELLA TYPHIMURIUM, Strain/Indicator: TA98, Metabolic Activation: RAT, LIVER, S-9, AROCLOR 1254, Method: STANDARD PLATE active; positive
inactive: [2] inactive; negative

O=[N+]([O-])c1ccc2ccc3cc4c(c5ccc1c2c35)CCCC4
inactive: [3] inactive; negative
active: [2] active; positive

CC(=O)Nc1ccc(NC(C)=O)cc1
inactive: Test System: Ames Salmonella typhimurium, Strain/Indicator: TA98, Metabolic Activation: None, Method: Standard Plate inactive; negative | Test System: Ames Salmonella typhimurium, Strain/Indicator: TA100, Metabolic Activation: None, Method: Standard Plate inactive; negative | Test System: Ames Salmonella typhimurium, Strain/Indicator: TA102, Metabolic Activation: None, Method: Standard Plate inactive; negative | Test System: Ames Salmonella typhimurium, Strain/Indicator: TA1535, Metabolic Activation: None, Method: Standard Plate inactive; negative | Test System: Ames Salmonella typhimurium, Strain/Indicator: TA1537, Metabolic Activation: None, Method: Standard Plate inactive; negative

Nc1c(N=Nc2ccc(-c3ccc(NN=C4C=CC(=O)C=C4)cc3)cc2)c(S(=O)(=O)O)cc2c1C(=O)/C(=N/Nc1ccccc1)C(S(=O)(=O)O)=C2
active: Test System: AMES SALMONELLA TYPHIMURIUM, Strain/Indicator: TA1535, Metabolic Activation: HAMSTER, LIVER, S-9, AROCLOR 1254 (10%), Method: PREINCUBATION active; positive | Test System: AMES SALMONELLA TYPHIMURIUM, Strain/Indicator: TA1535, Metabolic Activation: RAT, LIVER, S-9, AROCLOR 1254 (10%), Method: PREINCUBATION active; positive
inactive: Test System: AMES SALMONELLA TYPHIMURIUM, Strain/Indicator: TA98, Metabolic Activation: HAMSTER, LIVER, S-9, AROCLOR 1254 (10%), Method: PREINCUBATION inactive; negative | [4] inactive; negative | [2] inactive; negative | Test System: AMES SALMONELLA TYPHIMURIUM, Strain/Indicator: TA98, Metabolic Activation: RAT, LIVER, S-9, AROCLOR 1254 (10%), Method: PREINCUBATION inactive; negative | Test System: AMES SALMONELLA TYPHIMURIUM, Strain/Indicator: TA98, Metabolic Activation: RAT, LIVER, S-9, PHENOBARBITAL, Method: STANDARD PLATE inactive; negative | Test System: AMES SALMONELLA TYPHIMURIUM, Strain/Indicator: TA100, Metabolic Activation: HAMSTER, LIVER, S-9, AROCLOR 1254 (10%), Method: PREINCUBATION inactive; negative | [5] inactive; negative | [3] inactive; negative | Test System: AMES SALMONELLA TYPHIMURIUM, Strain/Indicator: TA100, Metabolic Activation: RAT, LIVER, S-9, AROCLOR 1254 (10%), Method: PREINCUBATION inactive; negative | Test System: AMES SALMONELLA TYPHIMURIUM, Strain/Indicator: TA100, Metabolic Activation: RAT, LIVER, S-9, PHENOBARBITAL, Method: STANDARD PLATE inactive; negative | [1] inactive; negative | Test System: AMES SALMONELLA TYPHIMURIUM, Strain/Indicator: TA1535, Metabolic Activation: RAT LIVER, S-9, AROCLOR 1254 (10%), Method: PREINCUBATION inactive; negative | Test System: AMES SALMONELLA TYPHIMURIUM, Strain/Indicator: TA1537, Metabolic Activation: HAMSTER, LIVER, S-9, AROCLOR 1254 (10%), Method: PREINCUBATION inactive; negative | Test System: AMES SALMONELLA TYPHIMURIUM, Strain/Indicator: TA1537, Metabolic Activation: NONE, Method: PREINCUBATION inactive; negative | Test System: AMES SALMONELLA TYPHIMURIUM, Strain/Indicator: TA1537, Metabolic Activation: RAT, LIVER, S-9, AROCLOR 1254 (10%), Method: PREINCUBATION inactive; negative

CS(=O)(=O)N1C2c3ccccc3-c3ccccc3C21 (stereo not given)
active: [3] active; positive
inactive: Test System: CHINESE HAMSTER V-79, Strain/Indicator: V-79/6-THIOGUANINE, Metabolic Activation: NONE, Method: STANDARD PLATE inactive; negative
